Data published in patent publication US20220153746A1, “NITROGEN OXIDE-DONATING PDE-5 AND/OR PDE-6 INHIBITOR COMPOUNDS, AND USES THEREOF” (ILDONG PHARMACEUTICAL CO., LTD., priority 2020, published 2022).
Like-named read-outs stand apart in the source and are kept apart here.

Key:
[1] = Plasma protein binding assay (equilibrium dialysis); format: in vitro ADME; details: human plasma, dialysis 4 hours at 37° C.
Procedure: (§1) The dialysis device used in this example is a 96-well equilibrium dialysis plate (Cat #1006, HT Dialysis LLC, Gales Gerry, CT), and HTD 96 a/b dialysis membrane strips (Cat #1101, MWCO 12-14 kDa, HT Dialysis LLC). The dialysis device was assembled following the manufacturer's instructions.
(§2) The dialysis membrane strips were soaked in ultra-pure water at room temperature for approximately 1 hour. Each membrane strip containing 2 membranes was separated and soaked in 20:80 ethanol/water (v/v) for approximately 20 minutes, after which they were ready for used or were stored in the solution at 2-8° C. for up to a month. Prior to experiment, the membrane was rinsed and soaked for 20 minutes in ultra-pure water.
(§3) On the day of the experiment, the plasma was thawed by running under col tap water and centrifuged at 3220 rpm for 5 minutes to remove any clos. The pH value of the resulting plasma was checked. Only plasma with pH value with 7.0-8.0 could be used.
(§4) Both test and control compounds were dissolved in DMSO to achieve 10 mM stock solutions. Working solutions (400 μM) if test and control compounds were prepared by diluting 10μ of stock solutions with 240 μL of DMSO. Loading matrix solutions (2 μM) of both test and control compounds were prepared by diluting 5 μL of working solutions with 995 μL of blank matrix.
(§5) To prepare the loading matrix containing the test compound or control compounds, aliquots of either test compound working solutions or control compound working solution were spiked into blank matrix to achieve final test concentrations. The concentration of organic solvent in the final solutions were no more than 1% (normally 0.5%). The samples were mixture thoroughly before being used.
(§6) To prepare the time zero (T0) samples to be used for recovery determinations. 50 μL aliquots of loading matrix solution were transferred in triplicate to the sample collection plate. The samples were immediately matched with opposite blank buffer to obtain a final volume of 100 μL of 1:1 matrix/dialysis buffer (v/v) in each well. 500 μL of stop solution were added to these T0 samples. They were then stored at 2-8° C. pending further processes along with other post-dialysis samples.
(§7) To load the dialysis device, an aliquot of 150 μL of the loading matrix was transferred to the donor side of each dialysis well in triplicate, and 150 μL of the dialysis buffer was loaded to the received side of the well. The dialysis was placed in humidified incubator at 37° C. with 5% CO2 on a shaking platform that rated slowly (about 100 rpm) for 4 hours.
(§8) At the end of the dialysis, aliquots of 50 μL of samples were taken from both the buffer side and the matrix side of the dialysis deice. These samples were transferred into new 96-well plates (the sample collection plates). Each sample was mixed with an equal volume of opposite blank matrix (buffer or matrix) to reach a final volume of 100 μL of 1:1 matrix/dialysis buffer (v/v) in each well. All samples were further processed by adding 500 μL of stop solution containing internal standards. The mixture was vortexed and centrifuged at 4000 rpm for about 20 minutes. An aliquot of 100 μL of supernatant of all the samples were then removed for LC-MS/MS analysis.
(§9) The single blank samples were prepared by transferring 50 μL of blank matrix to a 96 well plate and adding 50 μL of blank PBS buffer to each well. The blank plasma must match the species of plasma used in the plasma side of the well. Then the matrix-matched samples were further processed by adding 500 μL of stop solution containing internal standards, following the same sample processing method as the dialysis samples.

[2] = tested on: human plasma proteins; test: as above; format: in vitro ADME; details: 2 μM, dialysis 4 hours at 37° C.
Procedure: as §1, §2, §3, §4, §5, §6, §7, §8, §9

[3] = Metabolic stability in human liver microsomes; format: in vitro ADME; details: 37° C., 0-60 minutes
Procedure: This example illustrates the metabolic stability of selected compounds in human liver microsomes samples.
Both test and control compound solutions were prepared by diluting 5 μL of the respective stock solutions (10 mM in DMSO) containing either the test or control compound with 495 μL of acetonitrile (ACN) to give intermediate solutions with concentrations of 100 μM (99% ACN).
β-Nicotinamide adenine dinucleotide phosphate tetrasodium salt (NADPH.4Na) was purchased from BONTAC (cat. No. BT04). The NADPH working solution (10 unit/mL) was prepared by combining the appropriate amount of NADPH powder and a MgCl2 solution (10 mM) to give final concentration in the reaction system of 1 unit/mL.
The appropriate concentrations of the microsome working solutions were prepared in 100 mM potassium phosphate buffer.
Cold (4° C.) acetonitrile solution containing 200 ng/mL tolbutamide and 200 ng/mL labetalol (internal standard) was used as the stop solution.
Liver microsomes solution was diluted to 0.56 mg/mL in 100 mM phosphate buffer, and 445 μL of this solution was transferred into pre-warmed (10 minutes) “incubation” plates T60 and NCF60; the “incubation” plates T60 and NCF60 were pre-warmed for 10 minutes at 37° C. with constant shaking.
54 μL of the liver microsome solutions was transferred to the blank plate, followed by addition of 6 μL of the NAPDH cofactor solution and 180 μL of the quenching solution to the same blank plate.
5 μL of the compound working solution (100 μM concentration) was next added to into the “incubation” plates (T60 and NCF60) containing microsomes and mixed 3 times thoroughly. For the NCF60 plate, 50 μL of the buffer solution was added, mixed 3 times thoroughly, and incubated at 37° C. for 60 minutes under constant shaking.
In the “Quenching” plate at T0 (T=0 min), 180 μL of quenching solution and 6 μL of the NAPDH cofactor solution were added, and the resulting plate was chilled to prevent evaporation.
In the T60 plate, after it was thoroughly mixed, 54 μL of the mixture was immediately transferred to the “quenching” plate for the 0-minute time point, followed by addition of 44 μL of NAPDH cofactor solution to the incubation plate (T60). The resulting mixture was then incubated at 37° C. for 60 minutes under constant shaking. At time points of 5, 10, 20, 30 and 60 minutes, 180 μL of the quenching solution was added to the “quenching” plates, followed by serial transfer of 60 μL of the mixture (per time point) from the T60 plate to the “Quenching” plates.
For the NCF60 plates, 60 μL of the sample solution was transferred from the NCF60 incubation plate to the “Quenching” plate containing quenching solution at T=60 min time point. […]

[4] = target: human PDE-6C (Homo sapiens, UniProt P51160); test: Human PDE-6C inhibition assay (fluorescence polarization, FAM-cGMP); format: biochemical
[5] = target: human PDE-5A1 (Homo sapiens, UniProt O76074); test: Human PDE-5A1 inhibition assay (fluorescence polarization, FAM-cGMP); format: biochemical

Chain of human PDE-6C (P51160 whole entry): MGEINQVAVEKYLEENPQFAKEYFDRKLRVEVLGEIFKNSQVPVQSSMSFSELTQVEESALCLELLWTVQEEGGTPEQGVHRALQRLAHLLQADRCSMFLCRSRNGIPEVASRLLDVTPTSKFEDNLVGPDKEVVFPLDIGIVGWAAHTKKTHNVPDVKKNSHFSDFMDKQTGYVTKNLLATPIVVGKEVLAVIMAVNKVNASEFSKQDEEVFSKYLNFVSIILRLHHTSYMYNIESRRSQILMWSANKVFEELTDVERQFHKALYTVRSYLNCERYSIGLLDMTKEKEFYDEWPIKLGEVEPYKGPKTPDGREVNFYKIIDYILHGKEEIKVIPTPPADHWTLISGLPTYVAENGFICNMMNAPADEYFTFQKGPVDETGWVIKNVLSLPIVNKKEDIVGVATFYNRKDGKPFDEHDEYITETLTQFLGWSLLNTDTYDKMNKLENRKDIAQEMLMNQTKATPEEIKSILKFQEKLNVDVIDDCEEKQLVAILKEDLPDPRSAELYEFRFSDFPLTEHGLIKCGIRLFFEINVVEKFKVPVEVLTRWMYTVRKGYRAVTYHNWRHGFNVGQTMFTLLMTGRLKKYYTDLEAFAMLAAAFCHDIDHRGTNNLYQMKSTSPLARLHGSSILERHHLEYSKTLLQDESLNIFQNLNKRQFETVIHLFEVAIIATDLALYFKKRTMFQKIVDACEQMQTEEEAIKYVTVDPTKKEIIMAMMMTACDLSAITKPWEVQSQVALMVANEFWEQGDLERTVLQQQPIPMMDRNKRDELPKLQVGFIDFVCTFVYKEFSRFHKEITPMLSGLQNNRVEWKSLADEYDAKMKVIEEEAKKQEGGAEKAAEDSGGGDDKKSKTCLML

| SMILES | IC50 ([4]; read-out: IC50 (μM) PDE6C) | IC50 ([5]; read-out: IC50 (μM) PDE5A1) | also measured |
| --- | --- | --- | --- |
| CCCc1nn(C)c2c(=O)[nH]c(-c3cc(S(=O)(=O)N4CC(NCCCO)C4)ccc3OCC)nc12 [Compound 10, 5-(2-ethoxy-5-((3-((3-hydroxypropyl)amino)azetidin-1-yl)sulfonyl)phenyl)-1-methy-3-propyl-1,6-dihydro-7H-pyrazolo[4,3-d]pyrimidin-7-one] | – | – | fraction unbound at 4 h, 2 µM [1]: 0.138; % Bound [2]: 86.19%; CLint scaled at 1 µM [3]: 55 mL/min/kg |
| CCCc1nn(C)c2c(=O)[nH]c(-c3cc(S(=O)(=O)N4CC(OCCCO[N+](=O)[O-])C4)ccc3OCC)nc12 [Compound 35, 3-((1-((4-ethoxy-3-(1-methyl-7-oxo-3-propyl-6,7-dihydro-1H-pyrazolo[4,3-d]pyrimidin-5-yl)phenyl)sulfonyl)azetidin-3-yl)oxy)propyl nitrate] | < 0.01 µM | 0.01 to 0.1 µM | – |
| CCCc1nn(C)c2c(=O)[nH]c(-c3cc(S(=O)(=O)N4CC(NCCOC(=O)CCCCC(CO[N+](=O)[O-])O[N+](=O)[O-])C4)ccc3OCC)nc12 (stereo not drawn) [Compound 69, 2-((1-((4-ethoxy-3-(1-methyl-7-oxo-3-propyl-6,7-dihydro-1H-pyrazolo[4,3-d]pyrimidin-5-yl)phenyl)sulfonyl)azetidin-3-yl)amino)ethyl 6,7-bis(nitrooxy)heptanoate] | – | – | IC50 [4]: < 0.01 µM; IC50 [5]: < 0.01 µM |
| CCCc1nn(C)c2c(=O)[nH]c(-c3cc(S(=O)(=O)N4CC(OCCCCO)C4)ccc3OCC)nc12 [Compound 27, 5-(2-ethoxy-5-((3-(4-hydroxybutoxy)azetidin-1-yl)sulfonyl)phenyl)-1-methyl-3-propyl-1,6-dihydro-7H-pyrazolo[4,3-d]pyrimidin-7-one] | < 0.01 µM | 0.01 to 0.1 µM | – |
| CCCc1nn(C)c2c(=O)[nH]c(-c3cc(S(=O)(=O)N4CC(CN5CC(CO[N+](=O)[O-])C5)C4)ccc3OCC)nc12 [Compound 37, (1-((1-((4-ethoxy-3-(1-methyl-7-oxo-3-propyl-6,7-dihydro-1H-pyrazolo[4,3-d]pyrimidin-5-yl)phenyl)sulfonyl)azetidin-3-yl)methyl)azetidin-3-yl)methyl nitrate] | 0.01 to 0.1 µM | 0.01 to 0.1 µM | – |
| CCCc1nn(C)c2c(=O)[nH]c(-c3cc(S(=O)(=O)N4CC(NCCO[N+](=O)[O-])C4)ccc3OCC)nc12 [Compound 21, 2-((1-((4-ethoxy-3-(1-methyl-7-oxo-3-propyl-6,7-dihydro-1H-pyrazolo[4,3-d]pyrimidin-5-yl)phenyl)sulfonyl)azetidin-3-yl)amino)ethyl nitrate] | < 0.01 µM | < 0.01 µM | – |
| CCCc1nn(C)c2c(=O)[nH]c(-c3cc(S(=O)(=O)N4CC(N5CC(CCO)C5)C4)ccc3OCC)nc12 [Compound 33, 5-(2-ethoxy-5-((3-(2-hydroxyethyl)-[1,3′-biazetidin]-1′-yl)sulfonyl)phenyl)-1-methyl-3-propyl-1,6-dihydro-7H-pyrazolo[4,3-d]pyrimidin-7-one] | < 0.01 µM | < 0.01 µM | – |
| CCCc1nn(C)c2c(=O)[nH]c(-c3cc(S(=O)(=O)NC4CN(CCCCO)C4)ccc3OCC)nc12 [Compound 8, 4-ethoxy-N-(1-(4-hydroxybutyl)azetidin-3-yl)-3-(1-methyl-7-oxo-3-propyl-6,7-dihydro-1H-pyrazolo[4,3-d]pyrimidin-5-yl)benzenesulfonamide] | 0.01 to 0.1 µM | 0.01 to 0.1 µM | – |
| CCCc1nn(C)c2c(=O)[nH]c(-c3cc(S(=O)(=O)N4CC(CCCOC(=O)CCC(CO[N+](=O)[O-])O[N+](=O)[O-])C4)ccc3OCC)nc12 (stereo not drawn) [Compound 73, 3-(1-((4-ethoxy-3-(1-methyl-7-oxo-3-propyl-6,7-dihydro-1H-pyrazolo[4,3-d]pyrimidin-5-yl)phenyl)sulfonyl)azetidin-3-yl)propyl 4,5-bis(nitrooxy)pentanoate] | – | – | IC50 [4]: < 0.01 µM; IC50 [5]: < 0.01 µM |
| CCCc1nn(C)c2c(=O)[nH]c(-c3cc(S(=O)(=O)N4CC(N(C)CCOC(=O)CCCCCO[N+](=O)[O-])C4)ccc3OCC)nc12 [Compound 67, 2-((1-((4-ethoxy-3-(1-methyl-7-oxo-3-propyl-6,7-dihydro-1H-pyrazolo[4,3-d]pyrimidin-5-yl)phenyl)sulfonyl)azetidin-3-yl)(methyl)amino)ethyl 6-(nitrooxy)hexanoate] | < 0.01 µM | < 0.01 µM | – |
| CCCc1nn(C)c2c(=O)[nH]c(-c3cc(S(=O)(=O)N4CC(CCCOC(=O)CCCCCO[N+](=O)[O-])C4)ccc3OCC)nc12 [Compound 65, 3-(1-((4-ethoxy-3-(1-methyl-7-oxo-3-propyl-6,7-dihydro-1H-pyrazolo[4,3-d]pyrimidin-5-yl)phenyl)sulfonyl)azetidin-3-yl)propyl 6-(nitrooxy)hexanoate] | < 0.01 µM | < 0.01 µM | – |
| CCCc1nn(C)c2c(=O)[nH]c(-c3cc(S(=O)(=O)N4CC(OCCCO)C4)ccc3OCC)nc12 [Compound 26, 5-(2-ethoxy-5-((3-(3-hydroxypropoxy)azetidin-1-yl)sulfonyl)phenyl)-1-methyl-3-propyl-1,6-dihydro-7H-pyrazolo[4,3-d]pyrimidin-7-one] | 0.01 to 0.1 µM | 0.01 to 0.1 µM | – |
| CCCc1nn(C)c2c(=O)[nH]c(-c3cc(S(=O)(=O)N4CC(N(CCCO)CCCO)C4)ccc3OCC)nc12 [Compound 30, 5-(5-((3-(bis(3-hydroxypropyl)amino)azetidin-1-yl)sulfonyl)-2-ethoxyphenyl)-1-methyl-3-propyl-1,6-dihydro-7H-pyrazolo[4,3-d]pyrimidin-7-one] | < 0.01 µM | < 0.01 µM | – |
